The values that follow come from US4632922A, “Oxomorpholinyl dimer and rescue of anthracycline and mitomycin C damage” (The United States of America as represented by the …, priority 1985, dated 1986).

The subject of one data set is DOX-induced injury. As to conditions: cited from earlier work; for reduction of size of ulceration: animal models.
The nature of data set [1]: Kinetic measurements of TM3 reactivity with anthracycline compounds in methanol solvent. As to conditions: reaction with TM3, 25° C. The procedure: Kinetic measurements of TM3 reactivity
with anthracycline compounds at 25° C. in methanol solvent.

In a further data set the test system is swine skin. Kind of data set: Skin lesions after intradermal DOX in swine. In kind it is in vivo, miniature white swine. The method, then: In order to produce anthracycline induced tissue damage, clinical grade doxorubicin (DOX) hydrochloride was obtained as a representative anthracycline chemical from the Drug Synthesis Branch, Developmental Therapeutics Program, National Cancer Institute. Each vial contained 10 mg DOX hydrochloride and 50 mg lactose which was reconstituted with 5.0 ml sterile 0.9% NaCl solution to give a final drug concentration of 2.0 mg/ml. DHM3 solution was prepared by dissolving 10 mg in ice-cold water which had been purged with N2 gas for 5 minutes. Dissolution was facilitated by brief sonication to give a final concentration of 10 mg/ml. The solution was kept cold (≈4° C.) and protected from air and light.
Female weanling miniature white swine weighing approximately 12 kg were obtained from the Veterinary Resources Branch, National Institutes of Health. The development of this strain of swine has been described previously (Sachs, et al., Transplantation 22:559-567, 1976). Each animal was housed in a 6×4 ft metabolic cage and was fed standard NIH show chow, 1.5 lbs twice daily.
DOX HCl (2.0 mg/ml) was administered intradermally (i.d.) with a 25 gauge needle inserted approximately 4 to 5 mm into the skin. Following the injection of 0.5, 0.75 or 1.0 ml (1.0, 1.5, or 2.0 mg, respectively) DOX solution, the syringe was removed from the hub leaving the needle in place. After the indicated time interval, 1.0 ml (10 mg) DHM3 was injected through the same needle and the needle was then removed. Control sites received 1.0 ml sterile water instead of DHM3. The injection sites were along the mid-lateral aspect of each side of the swine and were 4-5 cm apart (6-8 injection sites per side). One animal was used for a dose experiment where DOX, 0.5 ml/site was injected along one side and 1.0 ml/site was injected along the contralateral side. Fifteen minutes later, DHM3 or water was injected into alternating sites as described above. A second animal received DOX, 0.75 ml/site along both sides. DHM3 or water was injected into alternating sites at times varying from 5 to 120 minutes following DOX administration.
All lesions were measured by a single observer with metric calipers three times weekly for two weeks, followed by weekly measurements thereafter. The areas of skin ulceration and induration were estimated by the product of the cross perpendicular diameters. The total toxicity of DOX-induced skin ulceration was determined by calculating the area under the ulceration-time curve (AUC) in mm^2 -days.
In order to assess the extent of tissue injury following intradermal DOX or DHM3, incisional biopsies were performed on representative lesions 6 and 20 days following drug injection. These samples were placed in 10% buffered formalin and processed for examination by standard light microscopy (Pathco Inc., Potomac, MD.).

Data set [2] is described as follows: Kinetics of reaction of DHM3 with daunorubicin in water solvent. As to conditions: over the first 85 sec, water, 10° C., ten-fold excess DHM3. The method, then:
A test similar to that described for the same reaction in methanol solvent (vide supra) was run. Oxomorpholinyl dimer DHM3 (1.38 mg, 4.37×10^-3 mmol) was dissolved in 0.5 ml of oxygen-free methanol and quickly transferred without delay into one compartment of the cell. The solvent was promptly removed under vacuum. Daunorubicin hydrochloride ([…]) was dissolved in 100 ml of an aqueous solution of Tris (24.2 mg) and Tris hydrochloride (31.6 mg) and 2.6 ml of this solution (4.18×10^-4 mmol of 6) was introduced into the other compartment of the cell. The sample was freeze-thaw degassed over three cycles as described above, sealed, and placed in a thermostatted cell holder at 10.0±0.1° C. for about 20 min prior to mixing. Full spectra between 320 and 800 nm were recorded every 10 sec for the first 125 sec, and then every 20 sec. From the absorbance change at 620 nm over the first 85 sec (50% reaction of daunorubicin), a non-linear least-squares treatment gave a first order rate constant for bond homolysis of DHM3 (k1) equal to 6×10^-4 sec^-1 and a first order rate constant for destruction of 7 (k2) equal to 2×10^-2 sec^-1. Treatment of the data obtained in the 164-225 sec interval gave k2 =2.8×10^-2 sec^-1.
Thus, when a ten-fold excess of DHM3 is reacted with an oxygen-free 2×10^-4 M solution of 6 in buffered water (pH8) at 10° C., the absorbance of the solution at 618-620 nm, due to the tautomer 7, reaches its maximum after 125 sec and then decreases quickly, with an 80% decrease in 100 sec. Here again the formation and destruction of 7, as calculated from the data obtained in the first 85 sec of reaction, follows consecutive first order kinetics, first order in DHM3 and 7, with k1 =6×10^-4 sec^-1, k2 =2×10^-2 sec^-1 and ε7 =9600. Calculation of k2 from the absorbance data taken after 165 sec of reaction time, when only first order destruction of 7 is observed, gives a value of 2.8×10^-2 sec^-1.

Data set [3] is described as follows: Solubility of 7-deoxydaunorubicinone in the aqueous reaction medium. In kind it is physicochemical. The settings on record: water, pH8.

Consider `Cc1c(C)c2c(c(C)c1O)CCC(C)(CCCC(C)CCCC(C)CCCC(C)C)O2` (stereo not drawn) [alpha-tocopherol], for which, in the data set with DOX-induced injury, the “reduction of size of ulceration” value is listed as “purported to reduce the size of ulceration in some animal models but not in all”.

Turning to `COc1cccc2c1C(=O)c1c(O)c3c(c(O)c1C2=O)C[C@@](O)(C(=O)CO)C[C@@H]3O[C@H]1C[C@H](N)[C@H](O)[C@H](C)O1` [DOX, doxorubicin], in the data set with DOX-induced injury (2 mg/site i.d., swine, Okano et al. 1983), the “ulcer following DOX, compared with present results” value is “smaller and more variable ulcer”. In addition, the “RATE CONSTANT k2” value in data set [1] came to 0.011 s⁻¹. Moreover, the “dose dependence of skin ulceration size” value in the data set on swine skin (DOX 0.5 to 1.0 ml (2.0 mg/ml) i.d.) is “linearly dependent on the dose”. In the data set on swine skin (DOX i.d.), the “start of ulcer formation following DOX” value lay in the range of 7 to 8 days, the “time to complete healing of ulcer” value is recorded as no more than 7 weeks and the “time to maximal ulcer size following DOX” value turned out to be 3 weeks. For the same compound, the “microscopic appearance of lesions” value in the data set with swine skin (DOX i.d., biopsy) is “extensive coagulation-type necrosis of epidermis, dermis, and subcutaneous tissue, including muscle”.

For the compound `COc1cccc2c1C(=O)c1c(O)c3c(c(O)c1C2=O)C[C@@](O)(C(C)=O)C[C@@H]3O[C@H]1C[C@H](N)[C@H](O)[C@H](C)O1` [daunorubicin, reference compound], in data set [2], the reaction of daunorubicin worked out at 50%. Moreover, the “RATE CONSTANT k2” value in data set [1] came to 0.013 s⁻¹.

With `C[S+](C)[O-]` [dimethyl sulfoxide], the “reduction of size of ulceration” value with DOX-induced injury is reported as “purported to reduce the size of ulceration in some animal models but not in all”. The “severity of DOX-induced injury” value with DOX-induced injury (swine model, Okano et al. 1983) is “appeared to ameliorate the severity of injury”.

As to `COc1cccc2c1C(=O)c1c(O)c3c(c(O)c1C2=O)CC(O)(C(C)=O)CC3` (stereo not shown) [compound 8, 7-deoxydaunorubicinone], the solubility result in data set [3] was “sparingly soluble”.

For `CC(=O)C1(O)Cc2c(O)c3c(c(O)c2C(OC2CC(N)C(O)C(C)O2)C1)C(=O)c1ccccc1C3=O` (stereo not shown) [4-DEMETHOXYDAUNORUBICIN, 4-demethoxydaunorubicin], the “RATE CONSTANT k2” value in data set [1] came out at 0.009 s⁻¹.

Take `CC[C@@]1(O)C[C@H](O[C@H]2C[C@H](N(C)C)[C@H](O[C@H]3C[C@H](O)[C@H](O[C@H]4CCC(=O)[C@H](C)O4)[C@H](C)O3)[C@H](C)O2)c2c(cc3c(c2O)C(=O)c2c(O)cccc2C3=O)[C@H]1C(=O)OC` [ACLARUBICIN]: the “RATE CONSTANT k2” value in data set [1] came to 0.0009 s⁻¹.

Consider `CO[C@@H]1C[C@](C)(O)Cc2cc3c(c(O)c21)C(=O)c1c(O)cc2c(c1C3=O)O[C@@H]1O[C@@]2(C)[C@H](O)[C@@H](N(C)C)[C@@H]1O` [MENOGARIL], for which the “RATE CONSTANT k2” value in data set [1] turned out to be 0.0025 s⁻¹.
